One block for each molecule: values may come before it. Peptide text beside a SMILES is read from it. * marks the point of attachment. Cbz = O=C(OCc1ccccc1)*
B1: Estrogen receptor α (ERα) (receptor, UniProt P03372 1-595, looked up)
chain: MTMTLHTKASGMALLHQIQGNELEPLNRPQLKIPLERPLGEVYLDSSKPAVYNYPEGAAYEFNAAAAANAQVYGQTGLPYGPGSEAAAFGSNGLGGFPPLNSVSPSPLMLLHPPPQLSPFLQPHGQQVPYYLENEPSGYTVREAGPPAFYRPNSDNRRQGGRERLASTNDKGSMAMESAKETRYCAVCNDYASGYHYGVWSCEGCKAFFKRSIQGHNDYMCPATNQCTIDKNRRKSCQACRLRKCYEVGMMKGGIRKDRRGGRMLKHKRQRDDGEGRGEVGSAGDMRAANLWPSPLMIKRSKKNSLALSLTADQMVSALLDAEPPILYSEYDPTRPFSEASMMGLLTNLADRELVHMINWAKRVPGFVDLTLHDQVHLLECAWLEILMIGLVWRSMEHPGKLLFAPNLLLDRNQGKCVEGMVEIFDMLLATSSRFRMMNLQGEEFVCLKSIILLNSGVYTFLSSTLKSLEEKDHIHRVLDKITDTLIHLMAKAGLTLQQQHQRLAQLLLILSHIRHMSNKGMEHLYSMKCKNVVPLYDLLLEMLDAHRLHAPTSRGGASVEETDQSHLATAGSTSSHSLQKYYITGEAEGFPATV
notes: Endogenous ERα in MCF-7 nuclear extract or cell lysate; also called ERalpha

How the values were obtained:
ERα = assay: ChIP-Seq analysis of ERα binding in MCF-7 cells; assay type: cell-based, human; settings: 2 hours, E2 line = E2 (10 nM), 4-OHT line = E2+4-OHT
Excerpt: Thereafter, DNA was extracted using a DNA purification column.

[1] = test system: ERα-dependent transcription; assay: qPCR of ERα target gene transcripts (EBAG9, GREB1) in MCF-7 cells; assay type: cell-based, human; settings: for effect of removing Fbxo22 on the antagonistic activity: MCF-7 expressing Dox-induced shRNAs, E2 6 h then drug 12 h
Description: (§1) Using total RNA derived from individual cells recovered over time, qPCR was carried out. […] Using total RNA prepared from the treated cells, qPCR was carried out. […] Using the nucleus extract, immunoprecipitation and immunoblotting were carried out.
Using total RNA prepared from the cells over time, qPCR was carried out.
(§2) Total RNA was prepared from the cells treated with various drugs, and qPCR was carried out.
The cells were washed with PBS three times, and were then cultured in phenol red-non-added DMEM (supplemented with 5% charcoal-stripped FBS) for 72 hours.
Quantitative RT-PCR was carried out according to the method described in Johmura et al., Molecular Cell 55: 73-84, 2014. Total RNA was extracted using ISOGEN II (Wako), and using this as a template, cDNA was synthesized using SuperScript II cDNA synthesis kit (Invitrogen). PCR amplification was carried out in a 96-well optical reaction plate, using Power SYBR Green PCR Master Mix (Applied Biosystems). The relative expression ratio of individual genes was normalized with respect to the expression level of GAPDH.

[2] = test system: ERα complex with KDM4B and SRC-3
Description: as §1
The obtained cells were immunostained with anti-FLAG antibodies. Representative images are shown.
as §2
Immunoprecipitation and immunoblotting were carried out according to the method described in Johmura et al., Molecular Cell 55: 73-84, 2014. The cells were dissolved in a TBSN buffer (20 mM Tris-Cl (pH 8.0), 150 mM NaCl, 0.5% NP-40, 5 mM EGTA, 1.5 mM EDTA, and 0.5 mM Na3VO4). The obtained cell lysate was centrifuged at 4° C. at 15,000×g for 20 minutes, and was then used in immunoprecipitation using an antibody.
Regarding immunoprecipitation of ERα and KDM4B, a nuclear extract was prepared according to the method described in Hirokawa et al., Cancer Res. 74: 3880-3889, 2014. Cell pellets were suspended in buffer A (10 mM Hepes-KOH pH 7.9, 10 mM KCl, 1.5 mM MgCl2, 0.5 mM DTT, 0.5 mM PMSF, and protease inhibitor cocktail (Nakalai Tesque)) having five times the volume of the cell pellets, and the suspension was then incubated on ice for 5 minutes. Thereafter, the cells were centrifuged at 4° C. at 500×g for 5 minutes, and the obtained cell pellets were then suspended in buffer A having two times the volume of the cell pellets for homogenization. The homogenized cell suspension was centrifuged at 4° C. at 4,000×g for 5 minutes, and a cell nucleus was recovered in a precipitate. To the recovered nucleus, an equal amount of buffer B (20 mM Hepes-KOH pH 7.9, 600 mM KCl, 1.5 mM MgCl2, 0.2 mM EDTA, 25% glycerol, 0.5 mM DTT, 0.5 mM PMSF, and protease inhibitor cocktail) was added and suspended, and the obtained mixture was then blended at 4° C. for 30 minutes, using a rotator. The nuclear extract was centrifuged at 4° C. at 16,000×g for 15 minutes, and was then recovered in a supernatant. The nuclear extract was dialyzed against buffer C (20 mM Hepes-KOH pH 7.9, 100 mM KCl, 0.2 mM EDTA, 20% glycerol, 0.5 mM DTT, and 0.5 mM PMSF). After completion of the dialysis, the nuclear extract was centrifuged at 4° C. at 16,000×g for 30 minutes, and the remaining precipitate was then eliminated.
A protein (20 to 50 μg) was separated from the total cell lysate by SDS-PAGE, and was then transferred into a PVDF membrane (Millipore), which was then used in immunoblotting using various types of antibodies.

N-CoR repressor = molecular target: T1, N-CoR repressor (UniProt O75376 1-2440, limits assumed); assay: co-IP and immunoblot, control MCF-7 nuclear extract after E2 then 4-OHT (FIG. 5B)
T1 construct: Endogenous corepressor in MCF-7 nuclear extract
T1 sequence (O75376 whole entry): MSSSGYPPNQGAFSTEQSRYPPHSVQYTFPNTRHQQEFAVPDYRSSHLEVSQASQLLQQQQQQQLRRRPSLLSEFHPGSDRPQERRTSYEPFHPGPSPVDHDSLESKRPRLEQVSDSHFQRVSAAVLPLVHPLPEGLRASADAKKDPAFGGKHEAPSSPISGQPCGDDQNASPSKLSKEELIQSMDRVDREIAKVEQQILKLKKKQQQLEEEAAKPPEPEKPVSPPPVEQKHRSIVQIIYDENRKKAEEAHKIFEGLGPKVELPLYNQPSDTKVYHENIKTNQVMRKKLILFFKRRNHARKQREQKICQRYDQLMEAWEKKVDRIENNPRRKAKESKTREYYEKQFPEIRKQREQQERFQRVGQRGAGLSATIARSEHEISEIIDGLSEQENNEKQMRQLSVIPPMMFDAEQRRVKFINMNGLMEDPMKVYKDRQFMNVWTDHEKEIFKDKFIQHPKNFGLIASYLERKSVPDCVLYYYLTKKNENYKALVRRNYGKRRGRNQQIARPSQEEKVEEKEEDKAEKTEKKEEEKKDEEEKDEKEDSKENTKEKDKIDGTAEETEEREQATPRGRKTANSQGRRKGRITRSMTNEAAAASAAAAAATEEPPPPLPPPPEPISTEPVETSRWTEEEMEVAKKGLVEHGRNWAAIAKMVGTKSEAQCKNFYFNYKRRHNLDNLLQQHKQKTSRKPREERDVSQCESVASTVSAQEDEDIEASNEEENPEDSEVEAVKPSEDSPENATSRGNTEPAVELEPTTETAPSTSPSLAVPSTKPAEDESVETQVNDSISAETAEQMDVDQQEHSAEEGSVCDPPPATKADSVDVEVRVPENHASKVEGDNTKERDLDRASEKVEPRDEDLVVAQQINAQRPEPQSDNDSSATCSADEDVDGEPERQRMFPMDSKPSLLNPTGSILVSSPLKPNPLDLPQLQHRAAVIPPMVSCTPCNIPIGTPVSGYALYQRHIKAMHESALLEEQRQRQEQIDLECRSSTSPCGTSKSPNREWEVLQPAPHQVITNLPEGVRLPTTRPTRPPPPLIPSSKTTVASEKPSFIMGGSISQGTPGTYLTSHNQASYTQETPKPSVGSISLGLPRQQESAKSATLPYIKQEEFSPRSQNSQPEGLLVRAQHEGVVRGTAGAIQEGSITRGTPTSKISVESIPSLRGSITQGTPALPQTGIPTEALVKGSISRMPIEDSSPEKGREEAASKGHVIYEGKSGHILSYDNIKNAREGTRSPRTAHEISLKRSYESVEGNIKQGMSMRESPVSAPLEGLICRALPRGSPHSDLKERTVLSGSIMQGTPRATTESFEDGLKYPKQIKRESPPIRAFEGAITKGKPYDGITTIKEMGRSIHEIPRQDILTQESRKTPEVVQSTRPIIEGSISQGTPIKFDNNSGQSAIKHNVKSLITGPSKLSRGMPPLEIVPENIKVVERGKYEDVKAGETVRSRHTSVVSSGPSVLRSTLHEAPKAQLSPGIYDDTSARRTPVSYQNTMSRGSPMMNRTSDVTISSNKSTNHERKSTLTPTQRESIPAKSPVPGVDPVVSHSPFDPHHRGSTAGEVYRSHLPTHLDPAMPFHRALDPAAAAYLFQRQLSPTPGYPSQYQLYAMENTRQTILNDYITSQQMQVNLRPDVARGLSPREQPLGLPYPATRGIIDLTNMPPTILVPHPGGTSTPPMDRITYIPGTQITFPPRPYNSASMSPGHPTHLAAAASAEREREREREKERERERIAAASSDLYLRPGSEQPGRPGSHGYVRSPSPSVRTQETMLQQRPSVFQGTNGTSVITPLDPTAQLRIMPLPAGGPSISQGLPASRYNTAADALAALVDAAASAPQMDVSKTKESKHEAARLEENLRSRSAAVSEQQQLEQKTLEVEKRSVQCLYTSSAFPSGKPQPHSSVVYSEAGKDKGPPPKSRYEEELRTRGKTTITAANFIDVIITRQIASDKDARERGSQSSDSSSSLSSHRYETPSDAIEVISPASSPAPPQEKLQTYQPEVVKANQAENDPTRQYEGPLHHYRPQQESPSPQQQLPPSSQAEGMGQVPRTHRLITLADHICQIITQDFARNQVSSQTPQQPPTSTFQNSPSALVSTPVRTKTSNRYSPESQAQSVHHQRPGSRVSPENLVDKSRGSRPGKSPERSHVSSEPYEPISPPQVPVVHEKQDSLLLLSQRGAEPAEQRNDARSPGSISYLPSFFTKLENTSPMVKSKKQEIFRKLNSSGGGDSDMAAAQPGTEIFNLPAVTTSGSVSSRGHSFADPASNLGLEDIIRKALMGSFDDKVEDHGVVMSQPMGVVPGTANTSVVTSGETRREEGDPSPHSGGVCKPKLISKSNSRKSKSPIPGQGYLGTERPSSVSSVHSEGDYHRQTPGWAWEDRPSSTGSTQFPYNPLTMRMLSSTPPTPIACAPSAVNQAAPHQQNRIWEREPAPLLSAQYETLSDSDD

KDM4B [3] = molecular target: T2, KDM4B (UniProt O94953 1-1096); assay: co-IP (IP: ER) and immunoblot, MCF-7 nuclear extract after E2 (FIG. 2B)
T2 construct: Endogenous KDM4B in MCF-7 nuclear extract or cell lysate; also called histone lysine demethylase KDM4B
T2 sequence (looked up): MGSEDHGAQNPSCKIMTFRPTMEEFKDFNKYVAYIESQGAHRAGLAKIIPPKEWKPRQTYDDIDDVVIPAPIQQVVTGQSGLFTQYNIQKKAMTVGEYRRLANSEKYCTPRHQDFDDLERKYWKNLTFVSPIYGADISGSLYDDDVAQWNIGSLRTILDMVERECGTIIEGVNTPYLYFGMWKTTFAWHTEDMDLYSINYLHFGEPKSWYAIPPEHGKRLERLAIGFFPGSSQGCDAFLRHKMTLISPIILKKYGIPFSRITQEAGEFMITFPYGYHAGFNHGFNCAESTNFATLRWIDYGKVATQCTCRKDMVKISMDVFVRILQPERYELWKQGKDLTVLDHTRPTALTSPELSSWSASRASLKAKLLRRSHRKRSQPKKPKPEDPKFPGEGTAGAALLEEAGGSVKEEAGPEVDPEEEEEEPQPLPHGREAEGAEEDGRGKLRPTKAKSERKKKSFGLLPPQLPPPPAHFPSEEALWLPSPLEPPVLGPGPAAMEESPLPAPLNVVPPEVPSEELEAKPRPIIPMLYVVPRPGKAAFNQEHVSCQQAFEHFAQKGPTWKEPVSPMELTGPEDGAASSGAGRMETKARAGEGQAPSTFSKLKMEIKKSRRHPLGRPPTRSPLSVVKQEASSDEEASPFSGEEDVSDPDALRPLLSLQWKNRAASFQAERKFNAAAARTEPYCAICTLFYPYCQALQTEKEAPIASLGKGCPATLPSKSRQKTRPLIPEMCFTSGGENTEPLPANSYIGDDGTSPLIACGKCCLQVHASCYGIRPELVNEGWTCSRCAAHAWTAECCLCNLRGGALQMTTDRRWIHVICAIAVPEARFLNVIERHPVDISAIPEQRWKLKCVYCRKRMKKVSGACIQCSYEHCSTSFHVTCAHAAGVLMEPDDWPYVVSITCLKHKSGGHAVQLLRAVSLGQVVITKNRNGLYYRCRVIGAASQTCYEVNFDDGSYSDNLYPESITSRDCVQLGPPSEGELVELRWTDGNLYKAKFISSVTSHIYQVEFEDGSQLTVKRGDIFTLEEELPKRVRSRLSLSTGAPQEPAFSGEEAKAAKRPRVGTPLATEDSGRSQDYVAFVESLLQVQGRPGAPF

KDM4B [4] = molecular target: T2, KDM4B; assay: co-IP and immunoblot, E2-depleted MCF-7 cells with MG132 and 0.1, 1 or 10 nM E2 (FIG. 3I)
[5] = molecular target: B1; assay: anti-FLAG co-IP and immunoblot, MCF-7 cells expressing FLAG-Fbxo22 Wt or domain-deficient mutants (FIG. 3G)

Molecule: C[C@]12CC[C@@H]3c4ccc(O)cc4CC[C@H]3[C@@H]1CC[C@@H]2O [E2, Estradiol]
- ERα accumulation peaks detected (ERα; Fbxo22-depleted MCF-7 cells): 23,213
- ERα accumulation peaks detected (ERα; wild-type/control MCF-7 cells): 1,264

Molecule: C[C@]12CC[C@@H]3c4ccc(O)cc4C[C@@H](CCCCCCCCC[S+]([O-])CCCC(F)(F)C(F)(F)F)[C@H]3[C@@H]1CC[C@@H]2O (stereo partly shown) [Fulvestrant]
- effect of removing Fbxo22 on the antagonistic activity [1]: no effects
- need of Fbxo22 for the dynamics of cofactors in treated cells ([2]; MCF-7, E2 plus drug): not necessary

Molecule: CC(C)C[C@@H](C=O)NC(=O)[C@H](CC(C)C)NC(=O)[C@H](CC(C)C)NC(=O)OCc1ccccc1 [MG132] (Cbz-Leu-Leu-Leu-aldehyde)
- E2-induced transcriptional activity of EBAG9 and GREB1 after removal of E2 ([1]; MCF-7, E2 removed from medium, proteasome inhibitor added): recovered
- transcript levels of EBAG9 and GREB1 after treatment with 4-OHT ([1]; MCF-7, E2 then 4-OHT, in the presence of MG132 (10 μg/ml) compared with absence): maintained at high levels
- dynamics of cofactors (complex dissociation, N-CoR binding) after 4-OHT ([2]; MCF-7, E2+4-OHT+MG132): suppressed
- dissociation of KDM4B and SRC-3 from ERα by elimination of E2 ([2]; MCF-7, E2 depletion plus proteasome inhibitor): suppressed

Molecule: CN(C)CCOc1ccc(/C(=C(/CCCl)c2ccccc2)c2ccccc2)cc1 [Toremifene]
- effect of removing Fbxo22 on the antagonistic activity [1]: effects similar to those on 4-OHT

Molecule: B1
- binding result (N-CoR repressor): binds
- binding result (KDM4B [3]): binds

- binding result (KDM4B [4]): binds
- binding result [5]: binds
B2: wild-type FLAG-Fbxo22 (Wt) (other)
chain: MEPVGCCGECRGSSVDPRSTFVLSNLAEVVERVLTFLPAKALLRVACVCRLWRECVRRVLRTHRSVTWISAGLAEAGHLEGHCLVRVVAEELENVRILPHTVLYMADSETFISLEECRGHKRARKRTSMETALALEKLFPKQCQVLGIVTPGIVVTPMGSGSNRPQEIEIGESGFALLFPQIEGIKIQPFHFIKDPKNLTLERHQLTEVGLLDNPELRVVLVFGYNCCKVGASNYLQQVVSTFSDMNIILAGGQVDNLSSLTSEKNPLDIDASGVVGLSFSGHRIQSATVLLNEDVSDEKTAEAAMQRLKAANIPEHNTIGFMFACVGRGFQYYRAKGNVEADAFRKFFPSVPLFGFFGNGEIGCDRIVTGNFILRKCNEVKDDDLFHSYTTIMALIHLGSSK
notes: Dox-induced expression in MCF-7 cells; The tag is placed first by the order in the name; not shown: FLAG tag

Source: patent US20220120753A1, “METHOD FOR DETERMINING PROGNOSIS OF CANCER” (The University of Tokyo, priority 2018, published 2022)
